Results from patent US7309793B2, “Benzopyran derivatives substituted with a benzimidazole derivative, pharmaceutically acceptable salts therof, their preparations and pharmaceutical compositions containing them” (Dongbu Hannong Chemical Co., Ltd., priority 2003, dated 2007).

What was measured:
isolated rat hearts = assay: Cardioprotective effect on isolated ischemic heart models of white rats (Langendorff, global ischemia-reperfusion); settings: 10 μM; for LVDP × HR (left ventricular developed pressure × heart rate), % of pre-treatment / EDP (left ventricular end diastolic pressure): 30 min global ischemia, 30 min reperfusion; for EDP (left ventricular end diastolic pressure): baseline 5 mmHg; for LDH (concentration of lactate dehydrogenase, reperfusion release): after 30 min reperfusion; for TTC (time to contracture / time to induce contraction): during 30 min global ischemia, first 5 mmHg increase in EDP
Procedure: 100 mg/kg of sodium pentobarbital was injected in abdominal cavity of white male rats (300˜450 g; the experimental animal team of the Korea Research Institute of Chemical Technology) to anesthetize them. Then, an intravenous injection of 1000 U/kg of heparin was performed before taking out heart. Particularly, cannula(PE 240) was inserted in the trachea, and artificial respiration was tried upon the rat by using a rodent ventilator. Under that condition, aortic cannula was inserted in the aorta and heart was taken out under retrograde perfusion. The extracted heart was hung on Langendorff apparatus quickly and unnecessary tissues on heart were removed. Perfusion was induced under static pressure (85 mmHg) with 37° C. modified Krebs-Henseleit bicarbonate buffer (composition <mM/L>: 116 NaCl, 4.7 KCl, 1.1 MgSO4, 1.17 KH2PO4, 24.9 NaHCO3, 2.52 CaCl2, 8.32 Glucose, 2.0 Pyruvate) saturated with 95% O2/5% CO2. A metal cannula, to which a latex balloon filled with a ethanol-distilled water mixture (1:1 vol/vol) was linked, was inserted in left ventricle through pulmonary vein. Then, left ventricular pressure transmitted through the balloon was transduced by using pressure transducer, and amplified by using isovolumetric amplifier(Plugsys bridge amplifier). Then, the pressure was recorded in a recorder (Linearcorder mark 8 WR 3500). Thereafter, heart was stabilized for 15 minutes. Then, left ventricular end diastolic pressure (LVEDP) was given by 5 mmHg and such volume of the balloon was kept throughout the experiments.
Baseline cardiac contractile function, heart rate (HR), and coronary flow (CF) were measured. Cardiac contractile function was calculated by […], yielding LVDP (left ventricular developed pressure). Double product RPP (rate-pressure product)(DP), another important parameter for indirectly assessing cardiac performance in Langendorff heart, in which cardiac output could not be measured ordinarily, was calculated by multiplying HR by LVDP. Throughout the experiment, total coronary blood flow was measured by the use of coronary flow probe (diameter: 1.0 mm) installed in aortic cannula with electromagnetic flowmeter. Temperature of heart was steadily maintained by immersing the heart at 37° C. in physiological saline solution to which 95% O2/5% CO2 was constantly supplied. After stabilization for 15 min, the hearts were pre-treated for 10 min with vehicle (0.04% DMSO) only or a compound of the present invention or the control material in the vehicle. Thereafter, cardiac contractile function, HR and CF were repeatedly measured. Global ischemia was induced by completely shutting off the perfusate for 30 min. Severity of ischemia was determined as the time to contracture (TTC, min) during global ischemia in which the first 5 mmHg increase in EDP was observed. Then, the hearts were reperfused and, 30 min later, contractile functions (LVDP, HR and CF) were repeatedly measured. After reperfusion was accomplished for 30 min, LDH (lactate dehydrogenase) was measured with a kit as a sensitive index for loss of cell viability.

rat aorta = assay: Vasodilating effect on blood vessel isolated from white rats (methoxamine-constricted aortic rings); settings: for IC50: isolated rat aorta constricted with methoxamine (3 μM), endothelium removed, read-out: Concentration for inhibition of constriction induced by methoxamine in rat arota (IC50); for weaker vasorelaxation effect than that of BMS-180448 (times): ratio of IC50 versus BMS-180448
Text: White rats (350˜450 g; the Experimental Animal Team of the Korea Research Institute of Chemical Technology) were knocked to be unconscious by hitting the occipital region, sacrificed by cervical dislocation, and underwent thoracotomy. After being quickly removed, the thoracic aorta was deprived of the adipose tissue and cut into aortic rings of 3 mm width. The aorta was lightly rubbed with cotton club soaked in a modified Krebs Henseleit buffer (physiological salt solution) to remove the inner […] layer therefrom. While being hung in an organ bath containing a physiological buffer, the vascular smooth muscle was allowed to equilibrate under a resting tension of 2 g and then, stand for 1 hour at 37° C. for stabilization, supplying a carbogen consisting of 95% O2/5% CO2. Thereafter, the vascular smooth muscle was constricted with 10^−5 M phenylephrine and washed several times with physiological saline solution. The said procedure was repeated to ensure the stable reactivity of vascular smooth muscle to repetitive constriction/relaxation.
Thereafter, 3×10^−6 M methoxamine was applied to induce an intensive constriction in the vascular smooth muscle. When the vasoconstriction induced by the methoxamine was reached and maintained to a maximum, test compounds and control material were cumulatively added to the organ bath with concentration of 1, 3, 10 and 30 μM, respectively, to examine the vasodilating effect. Cromakalim and BMS-180448 (compound of <Formula 2>), known to be the first generation KATP opener with potent vasodilating effect, were used as control materials.
The change rate of constriction by the addition of the drugs compared to the maximal constriction induced by methoxamine was calculated to plot a concentration-relaxation response curve. Through a least linear regression analysis, IC50 that the drug concentration at which the vascular tissue is relaxed to 50% extent of the maximal constriction, was obtained for each drug. And the results were shown in the below Table 1.

Compound: CC1(C)Oc2ccc(C#N)cc2[C@@H](NC(=NC#N)Nc2ccc(Cl)cc2)[C@@H]1O [BMS-180448, reference compound]
- LVDP × HR (left ventricular developed pressure × heart rate), % of pre-treatment (isolated rat hearts): 67.6%
- EDP (left ventricular end diastolic pressure) (isolated rat hearts): 16.5 mmHg
- LDH (concentration of lactate dehydrogenase, reperfusion release) (isolated rat hearts): 17.2 unit/g
- TTC (time to contracture / time to induce contraction) (isolated rat hearts): 27.8 min
- IC50 (rat aorta): 1.38 µM
- weaker vasorelaxation effects than that of Cromakalim (times) (rat aorta; ratio of IC50 versus Cromakalim): twenty times weaker

Compound: CC1(C)Oc2ccc(C#N)cc2C(N2CCCC2=O)C1O (centres unmarked) [Cromakalim, reference compound]
- IC50 (rat aorta): 0.067 µM

Compound: COC(OC)[C@@]1(C)Oc2ccc([N+](=O)[O-])cc2[C@H](n2c(=NC#N)[nH]c3ccccc32)[C@H]1O [Example 1, (2S, 3R, 4S)-6-nitro-3,4-dihydro-3-hydroxy-2-dimethoxymethyl-2-methyl-4-(2,3-dihydro-2-cyanoimino-1H-benzimidazol-1-yl)-2H-1-benzopyran]
- LVDP × HR (left ventricular developed pressure × heart rate), % of pre-treatment (isolated rat hearts): 68.8%
- EDP (left ventricular end diastolic pressure) (isolated rat hearts): 20.3 mmHg
- LDH (concentration of lactate dehydrogenase, reperfusion release) (isolated rat hearts): 8.1 unit/g
- TTC (time to contracture / time to induce contraction) (isolated rat hearts): 23.2 min
- IC50 (rat aorta): 50.1 µM
- weaker vasorelaxation effect than that of BMS-180448 (times) (rat aorta): 36 times

Compound: COC(OC)[C@@]1(C)Oc2ccc([N+](=O)[O-])cc2[C@H](n2c(=O)[nH]c3ccccc32)[C@H]1O [Example 18, (2S, 3R, 4S)-6-nitro-3,4-dihydro-3-hydroxy-2-dimethoxymethyl-2-methyl-4-(2,3-dihydro-2-oxo-1H-benzimidazol-1-yl)-2H-1-benzopyran]
- LVDP × HR (left ventricular developed pressure × heart rate), % of pre-treatment (isolated rat hearts): 41.5%
- EDP (left ventricular end diastolic pressure) (isolated rat hearts): 29.3 mmHg
- LDH (concentration of lactate dehydrogenase, reperfusion release) (isolated rat hearts): 20.4 unit/g
- TTC (time to contracture / time to induce contraction) (isolated rat hearts): 24.2 min

Compound: CC1(C)Oc2ccc([N+](=O)[O-])cc2[C@H](n2c(=O)[nH]c3ccccc32)[C@H]1O [Example 20, (3R, 4S)-6-nitro-3,4-dihydro-3-hydroxy-2,2-dimethyl-4-(2,3-dihydro-2-oxo-1H-benzimidazol-1-yl)-2H-1-benzopyran]
- LVDP × HR (left ventricular developed pressure × heart rate), % of pre-treatment (isolated rat hearts): 55.5%
- EDP (left ventricular end diastolic pressure) (isolated rat hearts): 29.0 mmHg
- LDH (concentration of lactate dehydrogenase, reperfusion release) (isolated rat hearts): 20.7 unit/g
- TTC (time to contracture / time to induce contraction) (isolated rat hearts): 23.9 min
- IC50 (rat aorta): 18.6 µM
- weaker vasorelaxation effect than that of BMS-180448 (times) (rat aorta): 10 times
